Laboratory results: PubChem BioAssay (NCI)
Values joined by “and” are separate entries in the source; they are usually repeats but may differ in a detail not shown here. Equal entries are not always repeated.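 The compound was tested at five concentrations on cells cultured in 96-well plates, with a 48-hour exposure period. GI50: concentration for 50% inhibition of growth. TGI: total growth inhibition.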

Experiments:
Experiment in all cases: growth of human tumour cells (NCI), 48 h
DU-145 prostate = test system: DU-145 prostate
BT-549 breast = test system: BT-549 breast
PC-3 prostate = test system: PC-3 prostate
MDA-MB-231 breast = test system: MDA-MB-231 breast
NCI/ADR-RES ovarian = test system: NCI/ADR-RES ovarian
KM20L2 colon = test system: KM20L2 colon
M19-MEL melanoma = test system: M19-MEL melanoma
SNB-78 CNS = test system: SNB-78 CNS
HOP-18 NSCLC = test system: HOP-18 NSCLC
DLD-1 colon = test system: DLD-1 colon

Compound	GI50 (DU-145 prostate)	TGI (DU-145 prostate) [µM]	GI50 (BT-549 breast)	TGI (BT-549 breast) [µM]	GI50 (PC-3 prostate)	TGI (PC-3 prostate) [µM]	GI50 (MDA-MB-231 breast)	TGI (MDA-MB-231 breast) [µM]	GI50 (NCI/ADR-RES ovarian)	TGI (NCI/ADR-RES ovarian) [µM]	TGI (KM20L2 colon) [µM]	TGI (M19-MEL melanoma) [µM]	TGI (SNB-78 CNS) [µM]	TGI (HOP-18 NSCLC) [µM]	TGI (DLD-1 colon) [µM]
O=[N+]([O-])/C=C\c1ccc2c(c1)OCO2	3.07 µM	10.2	2.15 µM	4.8	2.62 µM	7.34	12.1 µM	27.5	10.3 µM	29.3	–	–	–	–	–
CCc1ccc(C2=C(O)C(=O)C(c3ccc(CC)cc3)=C(O)C2=O)cc1	2.81 µM	10.6	1.76 µM	5.62	2.17 µM	7.95	2.53 µM	11	2.21 µM	5.86	–	–	–	–	–
CN(C)CCNc1cccc2sc3ccc(O)cc3c(=O)c12	1.12 µM	11.2	9.2 µM	23.5	2.44 µM	13.4	1.48 µM	3.72	3.14 µM	12.7	–	–	–	–	–
COC(=O)/C(=N/NC(C)(C)C)C(C(=O)C=C(C)C)C(=O)C(=O)Nc1ccc(Cl)cc1C (centres undefined)	–	–	–	–	–	–	–	–	–	–	> 100	> 100	–	–	–
OC1CCC(Oc2cccc3cnc(Nc4ccc5nc[nH]c5c4)nc23)CC1 (centres undefined)	0.246 µM	17.2	0.22 µM	0.906	0.254 µM	20.7	0.389 µM	19.8	1.6 µM	13	–	–	–	–	–
O=C1/C(=C\c2cccs2)Oc2ccccc21	–	> 100	–	> 100	–	> 100	–	> 100	–	> 100	–	–	–	–	–
Cc1cc(O)cc(C)c1/C=C/c1cncc(C(=O)N(C)C)c1	> 25 µM	> 25	> 25 µM	> 25	> 25 µM	> 25	> 25 µM	> 25	> 25 µM	> 25	–	–	–	–	–
N#C/C(=C(\O)C(=O)O)c1ccc(-c2cccc3ccccc23)cc1	–	> 100	–	> 100	–	> 100	–	> 100	–	> 100	–	–	–	–	–
c1cc(-c2sc(-c3ccncc3)c(-c3ccncc3)c2-c2ccncc2)ccn1	–	76	–	42	–	57.4	–	31.2	–	82	–	–	–	–	–
CC(=O)O/C(C)=C\C(=O)O/N=C(\N)c1ccc(C)cc1	–	–	–	–	–	–	–	–	–	–	> 100	–	70.9	98.6	50.9
Cn1cnc([N+](=O)[O-])c1Sc1ncnc2nc[nH]c12	3.03 µM and 4.36 µM	> 100	12.2 µM and 7.26 µM	> 100	25.6 µM and 45.9 µM	> 100	8.83 µM and 11.7 µM	> 100	3.27 µM and 5.39 µM	> 100	–	–	–	–	–
N#CC1C(N)=NNC1c1ccc(-c2ccc(-c3nc4ccccc4o3)cc2)o1 (centres undefined)	15.3 µM	41.1	24 µM	75.7	40.3 µM	> 100	15.3 µM	65.8	36 µM	75.6	–	–	–	–	–
O=Nc1c2cccnc2n2nnc3ccc(Cl)cc3c12	0.893 µM	2.93	3.57 µM	12.3	1.09 µM	7.98	1.41 µM	7.76	1.29 µM	7.84	–	–	–	–	–
OCC1OC(N2C=C(c3nc4ccccc4s3)C3C=CC=CC32)C(O)C1O (centres undefined)	8.2 µM	25.8	9.55 µM	27.5	8.59 µM	42.4	11.3 µM	30.2	12.2 µM	36.9	–	–	–	–	–
O=C1NC(=O)C(c2ccccc2Cl)=C1Nc1cccc(O)c1	9.29 µM	> 25	9.62 µM	> 25	11.3 µM	> 25	> 25 µM	> 25	3.2 µM	> 25	–	–	–	–	–
O=c1c(OC/C(=N/O)c2ccccc2)c(-c2ccccc2)oc2ccccc12	17.1 µM	> 50	13.2 µM	26.8	8.64 µM	18	9.39 µM	23.6	14 µM	42	–	–	–	–	–
COc1ccc(/C=[N+](\[O-])[C@H](COCc2ccccc2)c2ccccc2)cc1	–	–	–	–	–	–	–	–	–	–	> 100	–	> 100	> 100	> 100
C=C1C(=O)O[C@H]2[C@H]1CC/C(COC(=O)c1ccc(C(=O)O)s1)=C\CC[C@@]1(C)O[C@@H]21	1.59 µM	3.13	1.72 µM	4.85	2.9 µM	11.4	1.6 µM	3.06	3.4 µM	26.2	–	–	–	–	–
CC(SC1=CC(=O)c2c(O)ccc(O)c2C1=O)C(=O)O (centres undefined)	–	–	–	–	–	–	–	–	–	–	> 100	–	> 79.1	> 90.3	> 57.1
CCOC(=O)/C(=C\c1ccc(CO)o1)P(=O)(OCC)OCC	–	> 100	–	45	–	> 100	–	93.5	–	> 100	–	–	–	–	–
CCOC(=O)c1c2ccc(/C=C/C(=O)OC)ccc-2c(C(=O)OCC)c1N	–	–	–	–	–	–	–	–	–	–	> 100	> 100	–	> 100	> 100
CC/C=C\C[C@H](O)C/C=C1/C(=O)C=C[C@@H]1C/C=C\CCCC(N)=O	2.5 µM	11	2.17 µM	5.54	2.15 µM	5.36	4.2 µM	15.2	2.81 µM	12.3	–	–	–	–	–
Cc1ccc(S(=O)(=O)NCCN2c3nc4ccccc4cc3Sc3cc4ccccc4nc32)cc1	> 100 µM	> 100	17.4 µM	> 100	–	–	4.61 µM	> 100	> 25.1 µM	> 100	–	–	–	–	–
NC(N)=NNC(=O)C(=O)O	–	> 100	–	> 100	–	> 100	–	> 100	–	> 100	–	–	–	–	–
CN(C)CN1C(=O)S/C(=C2\C(=O)N(CN(C)C)c3ccccc32)C1=O	–	> 100	–	> 100	–	> 100	–	> 100	–	> 100	–	–	–	–	–
CCC(=O)N1C/C(=C/c2ccc(OC)cc2)C(=O)/C(=C/c2ccc(OC)cc2)C1	2.91 µM	10.6	1.88 µM	3.5	2.17 µM	7.94	1.98 µM	4.28	3.54 µM	> 100	–	–	–	–	–

Compound	GI50 (DU-145 prostate)	TGI (DU-145 prostate) [µM]	GI50 (BT-549 breast)	TGI (BT-549 breast) [µM]	GI50 (PC-3 prostate)	TGI (PC-3 prostate) [µM]	GI50 (MDA-MB-231 breast)	TGI (MDA-MB-231 breast) [µM]	GI50 (NCI/ADR-RES ovarian)	TGI (NCI/ADR-RES ovarian) [µM]	TGI (KM20L2 colon) [µM]	TGI (M19-MEL melanoma) [µM]	TGI (SNB-78 CNS) [µM]	TGI (HOP-18 NSCLC) [µM]	TGI (DLD-1 colon) [µM]
COc1ccc2c(C3(O)CCNCC3)c[nH]c2c1	–	–	–	–	–	–	–	–	–	–	> 100	> 100	–	> 100	> 100
Cc1ccc(C)c(NC(=O)/C(=N\NC(N)=S)C(C#N)c2ccccc2)c1 (centres undefined)	–	–	–	–	–	–	–	–	–	–	> 100	> 100	–	> 100	> 100
CCCCCCCCCCCCC(SCCNC(=O)CCNC(=O)C(O)C(C)(C)COP(=O)(O)OP(=O)(O)OCC1OC(n2cnc3c(N)ncnc32)C(O)C1OP(=O)(O)O)C(=O)NCC(N)=O (centres undefined)	–	–	–	–	–	–	–	–	–	–	> 100	> 100	–	> 100	> 100
Cn1c2ccccc2n2c3nc4ccccc4nc3c(C#N)c12	–	> 100	–	> 100	–	> 100	–	> 100	–	> 100	–	> 100	–	> 100	> 100
O=C(O)c1nnsc1COCc1ccccc1	–	> 100	–	> 100	–	> 100	–	> 100	–	> 100	–	–	–	–	–
O=C(O)C(Cc1ccc(O)c([N+](=O)[O-])c1)N1C(=O)c2ccccc2C1=O (centres undefined)	–	> 100	–	> 100	–	> 100	–	> 100	–	> 100	–	–	–	–	–
CCCN(CCC)c1c([N+](=O)[O-])cc(S(N)(=O)=O)cc1[N+](=O)[O-]	–	–	–	–	–	–	–	–	–	–	37.4	40.6	–	36.2	34.9
CCN(CC)CC(C)Nc1ccc(C)c2sc3ccccc3c(=O)c12 (centres undefined)	6.68 µM	19.1	7.14 µM	21	3.6 µM	16.6	2.42 µM	8.99	5.56 µM	18.7	–	–	–	–	–
Cc1ccc(S(=O)(=O)ON/N=C2/C3OC3[C@@H]3CCCC[C@H]23)cc1 (some centres undefined)	–	–	–	–	–	–	–	–	–	–	> 100	> 100	–	> 100	> 100
CC1(C)C(=O)/C(=C\c2ccco2)C[C@]2(C)[C@H]3CC=C4[C@@H]5C[C@](C)(C(=O)O)CC[C@]5(C)CC[C@@]4(C)[C@]3(C)CC[C@@H]12	9.87 µM	24.2	9.46 µM	25.4	3.93 µM	23.1	14.1 µM	31.6	10 µM	29.2	–	–	–	–	–
O=C(Nc1ccc(Br)cc1)c1cc(Br)cc(Br)c1O	3.56 µM	19.9	3.08 µM	14.4	2.65 µM	8.82	2.08 µM	6.28	2.94 µM	9.47	–	–	–	–	–
C=CCN(N=O)C(=O)N(CCC)CCCC(NC(C)=O)C(=O)NCc1ccccc1 (centres undefined)	–	–	–	–	–	–	–	–	–	–	> 100	> 100	–	> 100	–
CCOC(=O)/C(C1=CC(=O)C(=O)c2ccccc21)=C(/C)NCc1ccccc1	1.79 µM	3.32	3.29 µM	6.18	1.23 µM	2.48	1.37 µM	3.28	2.02 µM	5.08	–	–	–	–	–
O=S(=O)(O)c1ccc2cc(N=Nc3cc(S(=O)(=O)O)c4cccnc4c3O)ccc2c1	–	> 100	–	> 100	–	> 100	–	> 100	–	> 100	–	–	–	–	–
O=C(/C=C/c1ccc([N+](=O)[O-])o1)NNC(=O)c1cc2ccccc2cc1O	0.998 µM	4.3	1.49 µM	5.74	3.36 µM	> 100	2.43 µM	> 100	1.48 µM	10.6	–	–	–	–	–
NC(N)=N/N=C/c1c(-c2cc(Cl)sc2Cl)nc2n1CCS2	–	–	8.51 µM	17.3	8.2 µM	15.2	7.64 µM	15.6	> 50 µM	> 50	–	–	–	–	–
Cc1ccc2c(c1)sc(-c1ccc(N(C)C)cc1)[n+]2C	1.95 µM	32	0.464 µM	8.08	0.677 µM	9.23	2.75 µM	21.1	> 95.8 µM	> 100	–	–	–	–	–
OCCCNCc1ccccn1	–	> 100	–	> 100	–	> 100	–	> 100	–	> 100	–	–	–	–	–
CCOC(=O)/C=C/c1ccc(C(=O)OCC)[nH]1	3.41 µM	19.6	6.76 µM	> 100	4.7 µM	> 100	13.7 µM	> 100	3.3 µM	> 100	–	–	–	–	–
c1c[nH]c(Cc2ncc(Cc3cnc[nH]3)[nH]2)n1	–	–	–	–	–	–	–	–	–	–	> 100	55.8	–	> 100	> 100
OC1CCC(C2C3CCCCC3C3CCCCC3C2C2CCC(O)CC2)CC1 (centres undefined)	–	> 100	–	8.87	–	> 100	–	9.66	–	> 100	–	–	–	–	–
CN(C)CCNC(=O)c1cccc(CO)c1[N+](=O)[O-]	–	> 100	–	> 100	–	> 100	–	> 100	–	> 100	–	–	–	–	–
COC1C(=O)CCC2(CO2)C1(O)C1(C)OC1CCC(C)C (centres undefined)	–	> 100	–	> 100	–	> 100	–	> 100	–	> 100	–	–	–	–	–
C=C(CNCCO)[C@@H]1CC[C@]2(CO)CC[C@]3(C)[C@H](CC[C@@H]4[C@@]5(C)CCC(NCCc6ccc(O)cc6)C(C)(C)[C@@H]5CC[C@]43C)[C@@H]12 (some centres undefined)	1.6 µM	3.03	1.55 µM	3.23	1.38 µM	3.07	0.854 µM	2.17	2.18 µM	5.1	–	–	–	–	–
CCN(CC)C(=S)SSC1CCCCC1	20.3 µM	45.5	19 µM	46.5	17.8 µM	42.6	17.3 µM	37.1	21.3 µM	47	–	–	–	–	–
O=C1C=C(c2cc(Br)c(O)c(Br)c2)/C(=C/c2cc(Br)c(O)c(Br)c2)O1	31.7 µM	> 75	28.6 µM	> 75	25 µM	> 75	32 µM	> 75	40.3 µM	> 75	–	–	–	–	–
